Entries after “also recorded” stand apart in the source; their conditions may differ. Where a name gives a salt, the structure may show the parent alone.
What was measured:
Format in all cases: in vivo
[1] = Cardiovascular activity on the chloralose-anaesthetised, artificially respirated dog (coronary sinus output, Pv O2, contraction amplitude, arterial pressure, rate of heart-beat); settings: for AMPLITUDE OF VENTRICULAR CONTRACTION / ARTERIAL PRESSURE / CORONARY OUTPUT / RATE OF HEART-BEAT / SINUSAL Pv O2: maximum percentage variation relative to pre-treatment values
Method: The pharmacological activity of the compounds of the invention in the cardiovascular field was determined on the dog in the manner described below:
An incision is made in the right-hand chest wall of an animal, which has been anaesthetised with chloralose and given artificial respiration, to enable the blood from the venus sinus to be drawn off and the apparatus required to record the following parameters to be inserted in position:
a. Output of the coronary sinus;
b. Pv O2 of the blood from the coronary sinus; and
c. Amplitude of the contractions of the right ventricule.
At the same there were also measured:
d. Arterial pressure in a main carotid artery: and
e. The rate of heart-beat determined cardiotachometrically.
Table II which follows records the determinations made of the various parameters, the results being expressed as a maximum percentage variation relative to the pre-treatment values.

β-adrenergic receptors [2] = assay: Action on the β-adrenergic receptors: inhibition of cardiovascular effects of isoprenaline in anaesthetised dogs; settings: dog, compound 5 mg/kg intravenous
Method: (§1) A stimulating electrode was placed in position on the right stellar ganglion of dogs anaesthetised as described above and for which there were recorded:
(§2) a. The arterial pressure,
(§3) b. Ventricular inotropism (the amplitude of contraction of the right ventricle), and
(§4) c. The rate of heart-beat.
(§5) The chest of the animals were not open and they were breathing freely.
The β-adrenergic receptors, both cardiac and vascular, were stimulated by electrical stimulation of the right stellar ganglion or by intravenous injection with isoprenaline (5 μg/kg).

β-adrenergic receptors [3] = assay: Action on the β-adrenergic receptors: inhibition of cardiac effects of stimulation of the right stellar ganglion in anaesthetised dogs; settings: compound 5 mg/kg intravenous, average, dog
Method: It then seemed interesting, using compound No. 1, to seek the existence of an action on the β-adrenergic receptors in the manner outlined below:
as §1, §2, §3, §4, §5
The β-adrenergic receptors, both cardiac and vascular, were stimulated by electrical stimulation of the right stellar ganglion or by intravenous injection with isoprenaline (5 μg/kg). The measurements were taken both before and after administration of compound No. 1 by the intravenous route in a dose of 5 mg/kg bodyweight.
The following Table III gives the average percentage inhibition of the cardiovascular effects of isoprenaline and of the cardiac effects of the stimulation of the right stellar ganglion.

[4] = isoprenaline 5 ug/kg intravenous, average

CC(C)COCC(CN1CCCC1)N(Cc1ccccc1)c1ccccc1 (centres unmarked) [Compound 1, 1-(3-isobutoxy-2-(phenylbenzyl)-amino)-propyl-pyrrolidino-hydrochloride]
AMPLITUDE OF VENTRICULAR CONTRACTION ([1]; 2.5 mg/kg intravenous): -0.7% | ARTERIAL PRESSURE ([1]; 2.5 mg/kg intravenous): -39.8% | CORONARY OUTPUT ([1]; 2.5 mg/kg intravenous): +51.2% | RATE OF HEART-BEAT ([1]; 2.5 mg/kg intravenous): -28.6% | SINUSAL Pv O2 ([1]; 2.5 mg/kg intravenous): +119.2% | AMPLITUDE OF VENTRICULAR CONTRACTION ([1]; 5 mg/kg intravenous): -22.3% | ARTERIAL PRESSURE ([1]; 5 mg/kg intravenous): -40.2% | CORONARY OUTPUT ([1]; 5 mg/kg intravenous): +36.9% | RATE OF HEART-BEAT ([1]; 5 mg/kg intravenous): -31.8% | SINUSAL Pv O2 ([1]; 5 mg/kg intravenous): +120.8% | oxygen content of the venous cardiac blood (in words) ([1]; intravenous): very considerable increase in the oxygen content of the venous cardiac blood | effect on stimulation of the β-adrenergic receptors (in words) (β-adrenergic receptors [2]; isoprenaline or right stellar ganglion stimulation, 5 mg/kg): partial inhibiting effect; also recorded: inhibiting effects with respect to the stimulation of the β-adrenergic receptors | PERCENTAGE INHIBITION OF Hypotension (β-adrenergic receptors [2]; [4]): -54% | PERCENTAGE INHIBITION OF Positive inotropic effect (β-adrenergic receptors [2]; [4]): -46.5% | PERCENTAGE INHIBITION OF Rate of Heart-beat (β-adrenergic receptors [2]; [4]): -32.7% | PERCENTAGE INHIBITION OF Positive inotropic effect (β-adrenergic receptors [3]): -21.3% | PERCENTAGE INHIBITION OF Rate of Heart-beat (β-adrenergic receptors [3]): -30%
